Measured values as given in US20040224958A1, “Pyridopyrimidinone derivatives for treatment of neurodegenerative disease” (priority 2000, published 2004).

What was measured:
cdk4/D = cdk4/D (Homo sapiens, UniProt P11802); test: Cyclin-Dependent Kinase 4 (cdk4) Assay; assay type: biochemical; settings: Table 1; read-out: cdk4/D IC50
Cdk5/p25 = Cdk5/p25 (Homo sapiens, UniProt Q00535); test: Cyclin-Dependent Kinase 5 (cdk5) Assay; assay type: biochemical; settings: Table 1
How it was run: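 Radiometric filter-plate assay: components premixed 5 min, reaction started with histone substrate and [^32P]ATP, 45 min at 30° C.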

cdk2/cyclinA = cdk2/cyclinA (Homo sapiens, UniProt P24941); test: Cyclin-Dependent Kinase Assay cdk2/cyclinA; settings: cdk2/A IC50, Table 1
cdk2/cyclinE = cdk2/cyclinE (Homo sapiens, UniProt P24941); test: Cyclin-Dependent Kinase Assay cdk2/cyclinE; settings: cdk2/E IC50, Table 1
cdc2/cyclinB = cdc2/cyclinB (Homo sapiens, UniProt P06493); test: Cyclin-Dependent Kinase Assay cdc2/cyclinB
cdc2/cyclinB, sequence (P06493 whole entry): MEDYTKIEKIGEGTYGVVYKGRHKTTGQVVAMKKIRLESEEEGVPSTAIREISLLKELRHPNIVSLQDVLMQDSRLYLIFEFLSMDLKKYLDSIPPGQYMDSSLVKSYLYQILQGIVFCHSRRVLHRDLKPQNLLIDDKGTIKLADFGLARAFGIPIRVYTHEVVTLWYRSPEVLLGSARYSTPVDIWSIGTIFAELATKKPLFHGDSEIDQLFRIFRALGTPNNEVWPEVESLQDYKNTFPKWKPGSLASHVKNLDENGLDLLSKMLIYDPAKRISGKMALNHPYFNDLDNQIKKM
cdc2/cyclinB, sequence (P14635 whole entry, further chain): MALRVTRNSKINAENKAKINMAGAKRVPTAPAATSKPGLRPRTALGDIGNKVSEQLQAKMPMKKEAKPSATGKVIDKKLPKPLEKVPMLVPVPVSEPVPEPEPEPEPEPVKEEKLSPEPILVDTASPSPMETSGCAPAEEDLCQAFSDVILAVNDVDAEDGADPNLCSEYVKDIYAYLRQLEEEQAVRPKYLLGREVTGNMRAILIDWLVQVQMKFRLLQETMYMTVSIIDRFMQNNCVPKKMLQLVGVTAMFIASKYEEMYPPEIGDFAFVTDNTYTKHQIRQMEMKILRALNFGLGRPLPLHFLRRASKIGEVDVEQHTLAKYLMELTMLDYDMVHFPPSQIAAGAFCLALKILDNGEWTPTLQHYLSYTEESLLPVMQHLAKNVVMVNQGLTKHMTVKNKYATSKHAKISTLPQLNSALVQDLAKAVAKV

cdk4/D, sequence (P11802 whole entry): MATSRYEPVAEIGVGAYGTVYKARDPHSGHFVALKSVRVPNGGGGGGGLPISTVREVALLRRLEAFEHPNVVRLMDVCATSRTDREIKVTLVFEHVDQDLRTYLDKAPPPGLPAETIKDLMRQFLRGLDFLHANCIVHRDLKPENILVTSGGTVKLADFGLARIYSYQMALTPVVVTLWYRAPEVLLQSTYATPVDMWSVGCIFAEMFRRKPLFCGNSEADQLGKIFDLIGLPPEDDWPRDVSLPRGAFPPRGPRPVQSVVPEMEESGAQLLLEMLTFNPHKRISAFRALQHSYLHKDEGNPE
cdk4/D, sequence (P24385 whole entry, further chain): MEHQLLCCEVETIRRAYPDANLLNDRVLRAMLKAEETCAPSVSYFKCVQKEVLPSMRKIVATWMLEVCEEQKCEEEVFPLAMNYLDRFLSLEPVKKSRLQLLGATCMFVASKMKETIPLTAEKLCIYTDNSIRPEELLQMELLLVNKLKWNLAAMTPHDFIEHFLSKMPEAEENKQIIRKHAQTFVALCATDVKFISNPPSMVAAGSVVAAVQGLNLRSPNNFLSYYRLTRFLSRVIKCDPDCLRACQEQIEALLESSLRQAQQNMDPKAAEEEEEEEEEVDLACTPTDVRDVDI

Row | IC50 (cdk4/D) | IC50 (Cdk5/p25) | IC50 (cdk2/cyclinA) | melting point | IC50 (cdk2/cyclinE) | IC50 (cdc2/cyclinB) | SMILES
1 | 4.5 nM | 6.9 nM | 15 nM | 205 to 207 °C | 19.7 nM | 78.5 nM | CN1CCN(c2ccc(Nc3ncc4ccc(=O)n(C5CCCCC5)c4n3)cc2)CC1 [Example 133, 8-Cyclohexyl-2-[4-(4-methyl-piperazin-1-yl)-phenylamino]-8H-pyrido[2,3-d]pyrimidin-7-one]
2 | 4.5 nM | 17.3 nM | 32.5 nM | 237 to 239 °C | 45.5 nM | 146 nM | CC1CN(c2ccc(Nc3ncc4ccc(=O)n(C5CCCCC5)c4n3)cc2)CC(C)N1 (stereo not drawn) [Example 145, 8-Cyclohexyl-2-14-(3,5-dimethyl-piperazin-1-yl)-phenylamino-8H-pyrido[2,3-d]pyrimidin-7-one]
3 | 513 nM | 280 nM | 217 nM | 144 to 146 °C | 2630 nM | 3300 nM | CN(C)c1ccc(Nc2ncc3ccc(=O)n(CCCOCc4ccccc4)c3n2)cc1 [Example 138, 8-(3-Benzyloxy-propyl)-2-(4-dimethylamino-phenylamino)-8H-pyrido[2,3-d]pyrimidin-7-one]
4 | 2.8 nM | 36 nM | 20.7 nM | 206 °C | 56 nM | 82.5 nM | O=c1ccc2cnc(Nc3ccc(N4CCC(O)CC4)cc3)nc2n1C1CC2CCC1C2 (stereo not drawn) [Example 227, 8-Bicyclo[2.2.1]hept-2-yl-2-[4-(4-hydroxy-piperidin-1-yl)-phenylamino]-8H-pyrido[2,3-d]pyrimidin-7-one]
5 | 7.5 nM | 24.4 nM | 8.4 nM | 224 to 225 °C | 24 nM | 112 nM | O=c1ccc2cnc(Nc3ccc(N4CCC(O)CC4)cc3)nc2n1C1CCCCC1 [Example 215, 8-Cyclohexyl-2-[4-(4-hydroxy-piperidin-1-yl)-phenylamino]-8H-pyrido[2,3-d]pyrimidin-7-one]
6 | 275 nM | 43.1 nM | 104 nM | 183 to 184 °C | 554 nM | 450 nM | O=c1ccc2cnc(Nc3ccc(-n4cccc4)cc3)nc2n1C1CCCCC1 [Example 161, 8-Cyclohexyl-2-(4-pyrrole-1-yl-phenylamino)-811-pyrido[2,3-d]pyrimidin-7-one]
7 | 780 nM | 568 nM | 6610 nM | 214 to 215 °C | 31900 nM | 7070 nM | O=c1ccc2cnc(Nc3ccc(OC(F)(F)C(F)F)cc3)nc2n1C1CC2CCC1C2 (stereo not drawn) [Example 219, 8-Bicyclo[2.2.1]hept-2-yl-2-[4-(1,1,2,2-tetrafluoro-ethoxy)-phenylamino]-8H-pyrido[2,3-d]pyrimidin-7-one]
8 | 4.5 nM | 6.9 nM | 15 nM | 208 to 209 °C | 19.7 nM | 78.5 nM | CC1CCN(c2ccc(Nc3ncc4ccc(=O)n(C5CCCCC5)c4n3)cc2)CC1 [Example 159, 8-Cyclohexyl-2-[4-(4-methyl-piperidin-1-yl)-phenylamino]-8H-pyrido[2,3-d]pyrimidin-7-one]
9 | 29.7 nM | 10.1 nM | 16 nM | 219 to 220 °C | 14 nM | 189 nM | O=c1ccc2cnc(Nc3ccc(F)cc3)nc2n1C1CC2CCC1C2 (stereo not drawn) [Example 212, 8-Bicyclo[2.2.1]hept-2-yl-2-(4-fluoro-phenylamino)-8H-pyrido[2,3-d]pyrimidin-7-one]
10 | 115 nM | 66.2 nM | 57.8 nM | 227 to 228 °C | 50 nM | 1660 nM | O=c1ccc2cnc(Nc3ccc(F)c(F)c3)nc2n1C1CC2CCC1C2 (stereo not drawn) [Example 220, 8-Bicyclo[2.2.1]hept-2-yl-2-(3,4-difluoro-phenylamino)-8H-pyrido[2,3-d]pyrimidin-7-one]
11 | 10.5 nM | 25.9 nM | 60.5 nM | 135 to 137 °C | 91 nM | 373 nM | CCN(CC)CCOc1ccc(Nc2ncc3ccc(=O)n(C4CCCCC4)c3n2)cc1 [Example 132, 8-Cyclohexyl-2-[4-(2-diethylamino-ethoxy)-phenylamino]-8H-pyrido[2,3-d]pyrimidin-7-one]
12 | 5.5 nM | 38.8 nM | 98.5 nM | 202 °C | 185 nM | 380 nM | O=c1ccc2cnc(Nc3ccc(N4CCC(CCO)CC4)cc3)nc2n1C1CC2CCC1C2 (stereo not drawn) [Example 228, 8-Bicyclo[2.2.1]hept-2-yl-2-{4-[4-(2-hydroxy-ethyl)-piperidin-1-yl]-phenylamino}-8H-pyrido[2,3-d]pyrimidin-7-one]
13 | 2.1 nM | 167 nM | 63 nM | 152 °C | 85 nM | 220 nM | O=c1ccc2cnc(Nc3ccc(N4CCCC(CO)C4)cc3)nc2n1C1CC2CCC1C2 (stereo not drawn) [Example 231, 8-Bicyclo[2.2.1]hept-2-yl-2-[4-(3-hydroxymethyl-piperidin-1-yl)-phenylamino]-8H-pyrido[2,3-d]pyrimidin-7-one]
